Results on 8 sequences are retold here after article PMC9131871, “Impact of Micropolymorphism Outside the Peptide Binding Groove in the Clinically Relevant Allele HLA-C*14 on T Cell Responses in HIV-1 Infection” (Journal of Virology, 2022).

The target in this experiment is HLA-C*14:02 (Homo sapiens, UniProt P10321, A176E/A330V/A35S/A97T/C350S/D114A/D33S/L171W/L180R/L218V/M285V/M309V/M331V/P208H/Q277E/Q291P/R121W/R243W/S123F/S297R/S48A/T329A/T363A/V319A). The experiment can be described thus: HLA stabilization assay on RMA-S-C1402 cells. The class given is cell-based. The settings on record: for binding to HLA-C*14:02 (stabilization of surface HLA expression): 100 μM peptide, 26°C 1 h then 37°C 3 h, MAb DT-9 staining, flow cytometry, triplicate assays; for relative affinity in hierarchy of peptide-HLA-C*14 binding (HLA-C*14:02): peptide concentrations from 0.1 to 100 μM, 6 epitope peptides compared. An excerpt: We next sought to confirm the HLA-C*14:02/C*14:03 restriction of the HIV-1 peptides identified by LC-MS/MS. First, we tested their ability to bind to HLA-C*14:02 or HLA-C*14:03 using HLA stabilization assays. Of the 25 HIV-1 peptides, three Env peptides, Env SI8, Env AM11, and Env VM9, are located in variable regions V2 and V3. In addition, Pol AF10, Pol PF8, Pol VWL9, and Env YI9 are located in regions where high sequence variation is reported in the LANL database. Therefore, we excluded these peptides from further analysis. The other 18 peptides were synthesized and tested for binding to HLA-C*14:02/C*14:03 by analyzing their ability to stabilize surface HLA expression on TAP-defective RMA-S cell lines expressing HLA-C*14:02 (RMA-S-C1402) or HLA-C*14:03 (RMA-S-C1403). These RMA-S cell lines express equivalent levels of HLA-C*14:02 and HLA-C*14:03 on the cell surface at 26°C, and surface HLA expression declines to very low levels when the cells are warmed to 37°C in the absence of exogenously added stabilizing peptides (Fig. 2A). Peptide binding was determined by evaluating whether HLA-I expression was stabilized in the presence of 100 μM peptide.
FIG 2 HLA-C*14:02/14:03 binding of HIV-1 peptides eluted from NL4-3-infected .221-C1402 and .221-C1403 cells as assessed by HLA stabilization assay using RMA-S cell lines. (A) Histogram plots showing surface expression of HLA-C*14:02 or HLA-C*14:03 on RMA-S-C1402 or RMA-S-C1403 cells at 26°C and after cells cultured at 26°C had been warmed to 37°C for 3 h. MFI values of cells cultured at 26°C were 27.4 for HLA-C*14:02 and 28.1 for HLA-C*14:03. MFI values of cells cultured at 37°C for 3 h were 5.0 for HLA-C*14:02 and 6.54 for HLA-C*14:03. (B) Analysis of binding of 14 HIV-1 NL4.3 peptides identified by LC-MS/MS to HLA-C*14:02 (blue) or HLA-C*14:03 (red) as measured in HLA class I stabilization assays using RMA-S-C1402 or RMA-S-C1403 cells. (C) Analysis of binding of 9 additional variant peptides to HLA-C*14:02 (blue) or C*14:03 (red). For panels B and C, peptides were tested at a concentration of 100 μM. Results are plotted as percent surface HLA-I expression relative to that at 26°C, calculated as the ratio of the MFI of peptide-pulsed RMA-S-C1402 or RMA-S-C1403 cells to that of control (non-peptide-pulsed) cells kept at 26°C, multiplied by 100. Means and standard deviations (SDs) from triplicate assays are shown. Statistical analyses were performed by unpaired t test. The P values were corrected for multiple testing. *, P < 0.05 and q < 0.05; **, P < 0.01 and q < 0.03; ***, P < 0.001 and q < 0.005.
The relative affinity of peptide binding to HLA-C*14:02 and -C*14:03 was examined using RMA-S-C1402 and RMA-S-C1403 cells as previously described ([15]). Briefly, RMA-S cells were cultured at 26°C for 16 h, pulsed with peptides at 26°C for 1 h, and subsequently incubated at 37°C for 3 h. Staining of cell surface HLA-C molecules was performed with the HLA-C-reactive monoclonal antibody (MAb) DT-9 ([48]), a gift from Mary Carrington, NIH, and fluorescein isothiocyanate (FITC)-conjugated sheep anti-mouse IgG (Jackson ImmunoResearch). Staining data were acquired on a FACSCanto II instrument (BD Biosciences) and analyzed using FlowJo 10.7.1 software. Relative HLA expression was calculated as the ratio of the mean fluorescence intensity (MFI) of peptide-pulsed RMA-S-C1402 cells or RMA-S-C1403 cells to that of control (non-peptide-pulsed) cells kept at 26°C, multiplied by 100 to express the values for peptide-pulsed cells as a percentage of that for the control cells at 26°C.
A general note: Flow cytometry measures light scatter and fluorescence of single cells or particles in a stream.

Regarding “VYYDPSKDL [Pol VYL9, HIV-1 NL4-3 Pol 472–480 peptide …]”, the “binding to HLA-C*14:02 (stabilization of surface HLA expression)” value was “low”.
Consider AFSPEVIPM [Gag AM9], for which the “relative affinity in hierarchy of peptide-HLA-C*14 binding (HLA-C*14:02)” value was “highest”.
Regarding “RFDSRLAF [Nef RF8, HIV-1 NL4-3 Nef 184–191 peptide RFDSRLAF]”, the “binding to HLA-C*14:02 (stabilization of surface HLA expression)” value is listed as “did not exhibit detectable binding”.
Same read-out and setting: the result for “FMTKALGI [Tat FI8, HIV-1 NL4-3 Tat 38–45 peptide FMTKALGI]” reads “did not exhibit detectable binding”.
As to AFHHVAREL [Nef AL9], the “relative affinity in hierarchy of peptide-HLA-C*14 binding (HLA-C*14:02)” value is on record as “lowest”.
Consider “FFREDLAF [Pol FF8, HIV-1 NL4-3 Pol 1–8 peptide FFREDLAF]”, for which the “binding to HLA-C*14:02 (stabilization of surface HLA expression)” value is recorded as “low”.
Same read-out and setting: the result for “ASGYIEAEV [Pol AV9, HIV-1 NL4-3 Pol 795–803 peptide …]” reads “did not exhibit detectable binding”.
The same measure, in the same setting: the result for “FLGAAGSTM [Env FM9, HIV-1 NL4-3 Env 522–530 peptide …]” reads “did not exhibit detectable binding”.
